Results published in ChEMBL document CHEMBL4020748, “Benzoxazolinone aryl sulfonamides as potent, selective Nav1.7 inhibitors with in vivo efficacy in a preclinical pain model” (Bioorg Med Chem Lett, 2017).
Activity calls are given as the source filed them. The rule behind the calls is not given here.

Experiments:
[1] = biological target: Sodium channel protein type 5 subunit alpha (Homo sapiens, UniProt Q14524); test: Inhibition of 50% inactivated human Nav1.5alpha expressed in HEK293 cells incubated for 5 mins measured at 10 secs interval by PatchXpress automated electrophysiology method; assay type: ADME, cell-based
Sodium channel protein type 5 subunit alpha, sequence (Q14524 whole entry): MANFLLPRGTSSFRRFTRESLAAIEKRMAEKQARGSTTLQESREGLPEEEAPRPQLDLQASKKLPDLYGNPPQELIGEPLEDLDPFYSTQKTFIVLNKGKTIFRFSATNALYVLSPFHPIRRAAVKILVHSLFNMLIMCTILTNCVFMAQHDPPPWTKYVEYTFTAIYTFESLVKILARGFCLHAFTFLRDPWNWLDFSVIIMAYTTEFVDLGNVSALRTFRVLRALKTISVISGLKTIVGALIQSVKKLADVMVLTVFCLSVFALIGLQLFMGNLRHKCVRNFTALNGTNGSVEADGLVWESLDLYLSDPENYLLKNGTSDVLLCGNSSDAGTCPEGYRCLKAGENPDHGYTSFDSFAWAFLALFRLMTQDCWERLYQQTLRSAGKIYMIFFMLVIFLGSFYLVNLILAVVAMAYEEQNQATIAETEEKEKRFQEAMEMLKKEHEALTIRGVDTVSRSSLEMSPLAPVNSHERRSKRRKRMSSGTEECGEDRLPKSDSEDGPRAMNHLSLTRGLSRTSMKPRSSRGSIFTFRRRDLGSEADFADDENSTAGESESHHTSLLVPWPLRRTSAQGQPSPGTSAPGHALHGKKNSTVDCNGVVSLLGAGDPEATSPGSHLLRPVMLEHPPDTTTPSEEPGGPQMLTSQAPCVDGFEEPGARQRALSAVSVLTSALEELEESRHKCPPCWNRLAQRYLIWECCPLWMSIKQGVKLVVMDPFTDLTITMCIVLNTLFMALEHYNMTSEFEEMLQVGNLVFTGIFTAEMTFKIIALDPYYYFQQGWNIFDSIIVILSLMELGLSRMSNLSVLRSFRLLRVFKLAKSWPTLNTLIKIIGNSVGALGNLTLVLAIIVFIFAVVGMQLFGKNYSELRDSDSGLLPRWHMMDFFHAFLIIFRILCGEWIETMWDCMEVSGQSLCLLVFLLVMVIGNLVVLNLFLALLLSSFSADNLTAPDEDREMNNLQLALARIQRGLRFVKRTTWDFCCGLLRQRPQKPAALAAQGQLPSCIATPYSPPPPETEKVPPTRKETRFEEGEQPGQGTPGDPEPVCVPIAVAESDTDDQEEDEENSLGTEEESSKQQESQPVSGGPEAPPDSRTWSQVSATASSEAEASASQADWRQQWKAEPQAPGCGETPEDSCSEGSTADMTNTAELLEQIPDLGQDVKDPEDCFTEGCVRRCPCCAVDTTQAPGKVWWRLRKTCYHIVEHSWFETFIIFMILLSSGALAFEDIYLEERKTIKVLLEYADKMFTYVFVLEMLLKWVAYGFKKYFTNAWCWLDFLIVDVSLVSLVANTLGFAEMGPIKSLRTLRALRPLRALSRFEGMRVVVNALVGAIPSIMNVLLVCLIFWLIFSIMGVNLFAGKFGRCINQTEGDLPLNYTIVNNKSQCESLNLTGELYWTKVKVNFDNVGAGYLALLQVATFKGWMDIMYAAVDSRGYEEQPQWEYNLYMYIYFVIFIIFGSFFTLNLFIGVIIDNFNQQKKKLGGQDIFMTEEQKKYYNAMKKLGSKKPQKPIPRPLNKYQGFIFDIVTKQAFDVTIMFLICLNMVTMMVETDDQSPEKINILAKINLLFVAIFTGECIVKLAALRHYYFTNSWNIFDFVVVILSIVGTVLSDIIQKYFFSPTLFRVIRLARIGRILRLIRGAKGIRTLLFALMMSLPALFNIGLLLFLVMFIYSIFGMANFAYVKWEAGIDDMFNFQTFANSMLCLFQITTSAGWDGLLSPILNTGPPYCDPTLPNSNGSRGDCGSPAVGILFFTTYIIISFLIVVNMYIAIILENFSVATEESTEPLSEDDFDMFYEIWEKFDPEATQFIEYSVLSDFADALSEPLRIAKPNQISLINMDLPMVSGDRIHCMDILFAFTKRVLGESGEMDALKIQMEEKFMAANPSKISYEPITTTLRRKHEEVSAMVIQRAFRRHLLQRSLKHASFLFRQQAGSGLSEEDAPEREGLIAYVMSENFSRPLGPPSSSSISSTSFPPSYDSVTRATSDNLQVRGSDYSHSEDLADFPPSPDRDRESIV

[2] = Selectivity ratio of IC50 for human Nav1.5alpha expressed in HEK293 cells to human Nav1.7alpha expressed in HEK293 cells
[3] = biological target: T1, Sodium channel protein type 9 subunit alpha (Homo sapiens, UniProt Q15858); test: Inhibition of 50% inactivated human Nav1.7alpha expressed in HEK293 cells incubated for 5 mins measured at 10 secs interval by PatchXpress automated electrophysiology method; assay type: cell-based
T1 sequence (Q15858 whole entry): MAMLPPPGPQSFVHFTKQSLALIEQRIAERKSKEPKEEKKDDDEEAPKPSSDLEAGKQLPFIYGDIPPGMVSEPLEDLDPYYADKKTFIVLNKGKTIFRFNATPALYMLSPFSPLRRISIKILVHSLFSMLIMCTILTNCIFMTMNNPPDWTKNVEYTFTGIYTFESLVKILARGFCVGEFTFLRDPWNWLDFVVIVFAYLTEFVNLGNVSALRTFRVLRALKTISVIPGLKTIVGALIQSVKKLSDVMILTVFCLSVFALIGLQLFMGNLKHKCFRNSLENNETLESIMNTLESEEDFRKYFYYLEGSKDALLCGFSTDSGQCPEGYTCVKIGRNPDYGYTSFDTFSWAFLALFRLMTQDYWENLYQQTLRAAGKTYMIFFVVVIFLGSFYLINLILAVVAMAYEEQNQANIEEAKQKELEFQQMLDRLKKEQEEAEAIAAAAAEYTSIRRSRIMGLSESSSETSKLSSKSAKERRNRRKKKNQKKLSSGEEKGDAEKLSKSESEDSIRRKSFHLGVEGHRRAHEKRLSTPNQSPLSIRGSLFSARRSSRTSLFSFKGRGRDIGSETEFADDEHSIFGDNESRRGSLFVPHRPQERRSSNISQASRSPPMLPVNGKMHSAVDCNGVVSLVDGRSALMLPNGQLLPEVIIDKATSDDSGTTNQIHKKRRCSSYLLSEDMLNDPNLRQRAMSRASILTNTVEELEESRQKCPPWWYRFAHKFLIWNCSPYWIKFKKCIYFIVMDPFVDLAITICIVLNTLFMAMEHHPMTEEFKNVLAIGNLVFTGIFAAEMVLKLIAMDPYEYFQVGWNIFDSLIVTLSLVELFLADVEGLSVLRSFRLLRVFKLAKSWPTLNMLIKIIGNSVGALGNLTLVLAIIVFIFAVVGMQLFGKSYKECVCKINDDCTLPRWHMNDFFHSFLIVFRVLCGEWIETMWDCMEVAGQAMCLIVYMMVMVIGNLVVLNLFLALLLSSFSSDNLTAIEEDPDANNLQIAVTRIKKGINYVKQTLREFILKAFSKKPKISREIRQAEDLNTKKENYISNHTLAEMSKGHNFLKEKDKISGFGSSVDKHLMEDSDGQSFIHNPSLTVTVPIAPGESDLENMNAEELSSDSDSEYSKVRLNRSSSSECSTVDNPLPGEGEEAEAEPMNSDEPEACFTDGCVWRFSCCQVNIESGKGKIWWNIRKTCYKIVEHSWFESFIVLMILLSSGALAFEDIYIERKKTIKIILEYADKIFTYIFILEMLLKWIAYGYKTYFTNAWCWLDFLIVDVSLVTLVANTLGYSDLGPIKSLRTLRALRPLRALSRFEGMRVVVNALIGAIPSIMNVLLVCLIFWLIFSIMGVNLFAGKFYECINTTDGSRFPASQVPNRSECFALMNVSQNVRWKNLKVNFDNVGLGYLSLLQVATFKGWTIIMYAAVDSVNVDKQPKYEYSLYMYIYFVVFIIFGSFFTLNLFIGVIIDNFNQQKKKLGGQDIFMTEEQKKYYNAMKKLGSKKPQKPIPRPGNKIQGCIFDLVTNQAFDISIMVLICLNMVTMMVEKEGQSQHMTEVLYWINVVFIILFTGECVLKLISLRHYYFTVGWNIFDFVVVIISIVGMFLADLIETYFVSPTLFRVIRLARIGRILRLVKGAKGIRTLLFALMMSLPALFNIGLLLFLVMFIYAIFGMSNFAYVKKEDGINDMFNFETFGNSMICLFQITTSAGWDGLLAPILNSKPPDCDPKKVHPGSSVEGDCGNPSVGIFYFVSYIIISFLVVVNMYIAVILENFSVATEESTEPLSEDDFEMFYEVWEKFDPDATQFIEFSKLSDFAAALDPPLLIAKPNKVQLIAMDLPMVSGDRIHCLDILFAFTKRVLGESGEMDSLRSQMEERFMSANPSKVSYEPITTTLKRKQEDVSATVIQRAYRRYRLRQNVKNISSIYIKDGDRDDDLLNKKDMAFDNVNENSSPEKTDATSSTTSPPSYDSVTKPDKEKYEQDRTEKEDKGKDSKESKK

[4] = biological target: Voltage-dependent L-type calcium channel subunit alpha-1C (Homo sapiens, UniProt Q13936); test: Activity at Cav1.2 (unknown origin)
[5] = biological target: Sodium channel protein type 9 subunit alpha (Rattus norvegicus, UniProt O08562); test: Inhibition of NaV1.7 channel in rat DRG neurons assessed as reduction of TTX-sensitive sodium current by whole cell patch clamp assay
[6] = biological target: T2, Sodium channel protein type 9 subunit alpha (Mus musculus, UniProt Q62205); test: Inhibition of NaV1.7 channel in mouse DRG neurons assessed as reduction of TTX-sensitive current by whole cell patch clamp assay
[7] = Fraction unbound in C57BL/6 mouse plasma at 100 mg/kg, sc; assay type: ADME, organism-based
[8] = biological target: T1, Sodium channel protein type 9 subunit alpha; test: Inhibition of NaV1.7 channel in human DRG neurons assessed as reduction of TTX-sensitive current by whole cell patch clamp assay
[9] = Half life in Wistar Hannover rat at 2 mg/kg, iv; assay type: ADME, organism-based; settings: in vivo
Mus musculus [10] = test: Analgesic activity in C57BL/6 mouse assessed as reduction in formalin-induced nociceptive behavior at 100 mg/kg, sc pretreated for 90 mins followed by formalin challenge measured after 20 to 35 mins; assay type: functional, organism-based
[11] = biological target: T3, Nuclear receptor subfamily 1 group I member 2 (Homo sapiens, UniProt O75469); test: Activity at PXR (unknown origin); assay type: ADME
T3 sequence (O75469 whole entry): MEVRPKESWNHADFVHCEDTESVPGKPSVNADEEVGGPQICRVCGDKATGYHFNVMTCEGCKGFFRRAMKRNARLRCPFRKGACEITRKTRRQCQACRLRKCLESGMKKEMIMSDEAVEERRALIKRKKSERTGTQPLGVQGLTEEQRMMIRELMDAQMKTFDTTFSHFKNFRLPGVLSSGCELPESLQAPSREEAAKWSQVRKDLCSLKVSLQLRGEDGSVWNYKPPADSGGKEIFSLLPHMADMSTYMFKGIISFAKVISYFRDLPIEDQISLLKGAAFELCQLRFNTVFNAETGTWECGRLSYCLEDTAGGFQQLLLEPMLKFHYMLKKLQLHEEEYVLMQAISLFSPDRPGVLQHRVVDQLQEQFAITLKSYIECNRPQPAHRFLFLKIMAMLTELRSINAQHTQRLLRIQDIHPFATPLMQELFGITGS

Mus musculus [12] = test: Analgesic activity in C57BL/6 mouse assessed as unbound concentration required for 50% reduction in formalin-induced nociceptive behavior at 100 mg/kg, sc pretreated for 90 mins followed by formalin challenge measured after 20 to 35 mins; assay type: functional
Mus musculus [13] = test: Analgesic activity in C57BL/6 mouse assessed as reduction in formalin-induced nociceptive behavior administered subcutaneously pretreated for 90 mins followed by formalin challenge measured up to 30 mins; assay type: functional
[14] = Ratio of fIC50 for analgesic activity in formalin-induced nociceptive C57BL/6 mouse model assessed as reduction in nociceptive behavior to IC50 for 50% inactivated mouse Nav1.7alpha
Rattus norvegicus = test: Unbound plasma clearance in Wistar Hannover rat at 2 mg/kg, iv; assay type: ADME, organism-based; settings: in vivo
[15] = Activity at CYP450 (unknown origin); assay type: ADME; settings: human
[16] = Ratio of drug level in brain to plasma in rat; assay type: ADME
[17] = Apparent permeability of the compound; assay type: physicochemical; settings: not told
[18] = Ratio of drug level in CSF to plasma in rat; assay type: ADME
[19] = Fraction unbound in Wistar Hannover rat plasma; assay type: ADME, cell-free
[20] = biological target: Sodium channel protein type 2 subunit alpha (Homo sapiens, UniProt Q99250); test: Inhibition of Nav1.2 (unknown origin)
[21] = biological target: Voltage-gated inwardly rectifying potassium channel KCNH2 (Homo sapiens, UniProt Q12809); test: Activity at human ERG
Voltage-gated inwardly rectifying potassium channel KCNH2, sequence (Q12809 whole entry): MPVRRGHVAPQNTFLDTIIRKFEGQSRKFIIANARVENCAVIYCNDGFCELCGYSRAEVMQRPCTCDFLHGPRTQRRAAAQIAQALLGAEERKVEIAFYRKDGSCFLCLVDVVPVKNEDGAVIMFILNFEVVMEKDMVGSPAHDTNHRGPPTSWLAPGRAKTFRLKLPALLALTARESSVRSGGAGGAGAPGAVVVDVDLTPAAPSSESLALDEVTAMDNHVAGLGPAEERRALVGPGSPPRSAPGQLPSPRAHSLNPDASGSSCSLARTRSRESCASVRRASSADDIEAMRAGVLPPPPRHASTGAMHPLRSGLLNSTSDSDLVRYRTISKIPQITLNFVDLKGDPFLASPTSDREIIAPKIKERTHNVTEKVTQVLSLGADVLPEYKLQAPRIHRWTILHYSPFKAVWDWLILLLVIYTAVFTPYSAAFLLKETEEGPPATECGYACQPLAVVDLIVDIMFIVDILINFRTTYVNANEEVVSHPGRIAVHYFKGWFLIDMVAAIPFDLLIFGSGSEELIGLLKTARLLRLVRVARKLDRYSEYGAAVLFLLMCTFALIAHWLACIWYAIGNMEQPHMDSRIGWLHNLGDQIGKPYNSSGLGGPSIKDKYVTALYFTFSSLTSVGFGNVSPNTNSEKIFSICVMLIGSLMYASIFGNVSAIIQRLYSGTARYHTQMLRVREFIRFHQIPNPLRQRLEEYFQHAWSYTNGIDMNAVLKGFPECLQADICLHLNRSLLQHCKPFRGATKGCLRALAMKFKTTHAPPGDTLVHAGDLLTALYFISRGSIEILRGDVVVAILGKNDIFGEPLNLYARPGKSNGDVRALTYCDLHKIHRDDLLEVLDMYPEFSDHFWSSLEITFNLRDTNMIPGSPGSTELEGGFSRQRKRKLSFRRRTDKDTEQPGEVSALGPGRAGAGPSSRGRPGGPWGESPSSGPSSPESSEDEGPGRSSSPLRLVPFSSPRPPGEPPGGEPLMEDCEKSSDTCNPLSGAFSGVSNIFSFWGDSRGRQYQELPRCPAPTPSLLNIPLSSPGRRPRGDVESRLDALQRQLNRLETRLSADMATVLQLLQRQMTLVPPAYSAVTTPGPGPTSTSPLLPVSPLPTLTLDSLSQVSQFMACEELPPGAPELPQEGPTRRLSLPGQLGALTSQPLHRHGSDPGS

[22] = Oral bioavailability in Wistar Hannover rat at 10 mg/kg; assay type: ADME, organism-based; settings: in vivo
[23] = biological target: T2, Sodium channel protein type 9 subunit alpha; test: Inhibition of 50% inactivated mouse Nav1.7alpha incubated for 5 mins measured at 10 secs interval by PatchXpress automated electrophysiology method
Mus musculus [24] = test: Analgesic activity in C57BL/6 mouse assessed as reduction in formalin-induced nociceptive behavior at 100 mg/kg, sc pretreated for 90 mins followed by formalin challenge measured up to 5 mins; assay type: functional, organism-based

SMILES: O=c1sc2cc(S(=O)(=O)Nc3ncns3)ccc2n1Cc1ccccc1
- IC50 [1]: > 30000 nM
- Ratio IC50 [2]: >31
- IC50 [3]: 970 nM

SMILES: C[C@H](c1cccc2c1CNCC2)n1c(=O)oc2cc(S(=O)(=O)Nc3ncns3)ccc21
- Activity [4]: Not Active
- IC50 [5]: 2370 nM
- IC50 [6]: 82 nM
- fraction unbound [7]: 0.065
- IC50 [8]: 31 nM
- half-life [9]: 0.8 h
- IC50 (Mus musculus [10]): 23000 nM
- Activity [11]: Not Active
- fIC50 (Mus musculus [12]): 1.5 µM
- Ratio IC50 [2]: 1381
- Activity (Mus musculus [13]): Dose-dependent effect
- Ratio [14]: 50
- CL free (Rattus norvegicus): 360 mL/min/kg
- IC50 [3]: 21 nM
- Activity [15]: Not Active
- BPR [16]: 1%
- Papp [17]: < 2 ×10⁻⁶ cm/s
- Ratio [18]: 0%
- fraction unbound [19]: 0.133
- IC50 [20]: 29 nM
- Activity [21]: Not Active
- bioavailability [22]: 2%
- IC50 [23]: 30 nM
- Activity (Mus musculus [24]): Active

SMILES: C[C@H](c1ccccc1CN)n1c(=O)oc2cc(S(=O)(=O)Nc3cccc(F)n3)c(F)cc21
- fraction unbound [7]: 0.145
- half-life [9]: 3 h
- IC50 (Mus musculus [10]): 7400 nM
- fIC50 (Mus musculus [12]): 1.1 µM
- Ratio IC50 [2]: 850
- Ratio [14]: 100
- CL free (Rattus norvegicus): 170 mL/min/kg
- IC50 [3]: 39 nM
- Papp [17]: 4 ×10⁻⁶ cm/s
- bioavailability [22]: 50%
- IC50 [23]: 11 nM

SMILES: C[C@H](c1cccc2c1CNCC2)n1c(=O)oc2cc(S(=O)(=O)Nc3ccc(F)cn3)c(F)cc21
- Ratio IC50 [2]: 108

SMILES: O=c1oc2cc(S(=O)(=O)Nc3ncns3)ccc2n1Cc1ccccc1
- IC50 [1]: > 30000 nM
- Ratio IC50 [2]: >62

SMILES: O=c1oc2cc(S(=O)(=O)Nc3ncns3)ccc2n1Cc1cccc2c1CNCC2
- Ratio IC50 [2]: >158
- IC50 [3]: 190 nM

SMILES: C[C@H](c1cccc2c1CNCC2)n1c(=O)oc2cc(S(=O)(=O)Nc3cc(Cl)ccn3)c(F)cc21
- Ratio IC50 [2]: 88

SMILES: O=S(=O)(Nc1ncns1)c1ccc2c(cnn2Cc2ccccc2)c1
- Ratio IC50 [2]: 6

SMILES: O=C1COc2cc(S(=O)(=O)Nc3ncns3)ccc2N1Cc1ccccc1
- IC50 [1]: > 30000 nM
- Ratio IC50 [2]: >37
- IC50 [3]: 815 nM

SMILES: C[C@H](c1ccccc1)n1c(=O)oc2cc(S(=O)(=O)Nc3ncns3)ccc21
- Ratio IC50 [2]: 287

SMILES: C[C@H](c1cccc2c1CNCC2)n1c(=O)oc2cc(S(=O)(=O)Nc3cccc(F)n3)c(F)cc21
- half-life [9]: 1.9 h
- Ratio IC50 [2]: 210
- CL free (Rattus norvegicus): 300 mL/min/kg
- IC50 [3]: 150 nM
- Papp [17]: 2.5 ×10⁻⁶ cm/s
- bioavailability [22]: 30%
